The text below walks through data of PubChem BioAssay AID1648 (Sanford-Burnham Center for Chemical Genomics, 2009).

The source made the active and inactive calls. How the calls were made is not given here.

The target of this test is Serine/threonine-protein kinase mTOR (Homo sapiens) (UniProt P42345). The experiment in a line: binders of mTOR FRB domain, biophysical, NMR (AID 1648). The following applies: NMR binding to FRB domain, chemical shift.
Chain of Serine/threonine-protein kinase mTOR (Homo sapiens) (P42345 2015-2114): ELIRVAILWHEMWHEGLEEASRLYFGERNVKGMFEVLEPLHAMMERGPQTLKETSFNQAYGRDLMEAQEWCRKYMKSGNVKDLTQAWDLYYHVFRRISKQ
The term Kd denotes the concentration at which binding is half-saturated. For the molecule `O=C1C=CC(=O)N1c1ccccc1O`, the Kd was > 4 mM (inactive).

On to `Cc1nnc2ccc(N3CCCC3)nn12`, for which the Kd was > 4 mM (inactive).

In the case of `O=C(O)c1cc2ccccc2[nH]1`, the Kd is > 4 mM (inactive).

As to `CNC(=O)Oc1ccc2c(c1)[C@]1(C)CCN(C)[C@@H]1N2C`, the Kd is > 4 mM (inactive).

Consider `Cc1cc2cc3c(C)cc(=O)oc3c(C)c2o1`, for which the Kd was > 4 mM (inactive).

Consider `Cc1c(O)c(O)cc2c1CC=C1[C@@]2(C)CC[C@@]2(C)C3C[C@](C)(C(=O)O)CC[C@]3(C)CC[C@]12C` (stereo partly specified), for which the Kd is > 4 mM (inactive).

As for `CC(=O)C1CC[C@H]2C3CC[C@H]4C[C@H](O)CC[C@]4(C)C3CC[C@]12C` (stereo partly specified), the Kd is > 4 mM (inactive).

As to `O=C(O)c1ccc2ccccc2n1`, the Kd is > 4 mM (inactive).

As for `NC(=O)C1CCN(C(=O)Nc2ccccc2)CC1`, the Kd is > 4 mM (inactive).

For the molecule `NS(=O)(=O)c1ccc2c(c1)OCCO2`, the Kd is > 4 mM (inactive).

For `CC1(c2ccncc2)NC(=O)NC1=O` (stereo unspecified), the Kd is > 4 mM (inactive).

Turning to `Cc1cc(=O)c2ccccc2n1CC(N)=O`, the Kd was > 4 mM (inactive).

In the case of `O=C(O)Cn1cc(C(=O)c2cccs2)c2ccccc21`, the Kd is > 4 mM (inactive).

Consider `O=S1(=O)CCC(NC(=S)Nc2ccccn2)C1` (stereo unspecified), for which the Kd is > 4 mM (inactive).

As to `COc1ccc2cc1Oc1ccc(cc1)C[C@H]1c3c(cc4c(c3Oc3cc5c(cc3OC)CCN(C)[C@@H]5C2)OCO4)CCN1C`, the Kd was > 4 mM (inactive).

Regarding `Cc1cc(NC(=O)c2ccc3c(c2)OCO3)no1`, the Kd was > 4 mM (inactive).

As for `CCOC(=O)C1=C(C)N2CCN=C2S1`, the Kd was > 4 mM (inactive).

`COc1cc(C)c(Cl)cc1S(=O)(=O)N(C)C`: the Kd was > 4 mM (inactive).

In the case of `C=C1C(=O)OC2CC1C(OC(C)=O)C/C(C)=C/CC/C(C)=C/CC[C@]2(C)O` (stereo partly specified), the Kd is > 4 mM (inactive).

Regarding `Cn1nc(C(C)(C)C)cc1N`, the Kd was > 4 mM (inactive).

Consider `COC(=O)C1CSCC1=O` (stereo unspecified), for which the Kd is > 4 mM (inactive).

Take `COc1ccc(C2(C)NC(=O)NC2=O)cc1` (stereo unspecified): the Kd was > 4 mM (inactive).

Consider `O=C1CCCC(=O)N1c1ccc(O)cc1`, for which the Kd was > 4 mM (inactive).

Take `CCOC(=O)c1c(C)nc2cc(C)ccn12`: the Kd was > 4 mM (inactive).

Take `COCC(=O)Nc1cccc2ccccc12`: the Kd was > 4 mM (inactive).

As to `COc1ccc(-c2cc(=O)c3ccccc3o2)cc1`, the Kd is > 4 mM (inactive).

On to `COc1c2c(cc3cc[n+](C)cc13)OCO2`, for which the Kd was > 4 mM (inactive).

In the case of `CCOc1cc(C)c(Cl)cc1S(=O)(=O)N(C)C`, the Kd was > 4 mM (inactive).

For `CN1CCN(CC(=O)NC2CCCCC2)CC1`, the Kd was > 4 mM (inactive).

For `O=C1NCCCC1C(=O)N1CCCCC1` (stereo unspecified), the Kd is > 4 mM (inactive).

As for `COc1ccc2c(c1)OCC(Cc1ccc(OC)c(O)c1)C2=O` (stereo unspecified), the Kd was > 4 mM (inactive).

For the molecule `COCC(=O)Nc1ccc(F)cc1F`, the Kd was > 4 mM (inactive).

With `CNS(=O)(=O)c1cccs1`, the Kd was > 4 mM (inactive).

On to `O=C1CN(C(=O)c2ccccc2F)c2ccccc2N1`, for which the Kd was > 4 mM (inactive).

For the molecule `CN(C)C(=O)CCNS(=O)(=O)c1ccccc1`, the Kd was > 4 mM (inactive).

Turning to `N=Nc1c(O)[nH]c2ccccc12`, the Kd was > 4 mM (inactive).

With `Nc1ncnc2c1ncn2CCN1CCOCC1`, the Kd is > 4 mM (inactive).

On to `O=C(Nc1ccon1)c1csc2c1CCCC2`, for which the Kd was > 4 mM (inactive).

On to `CC(=O)O[C@H]1CCC2(C)C3=C(CCC2C1(C)C)[C@]1(C)CCC(C(C)CCC=C(C)C)[C@@]1(C)CC3` (stereo partly specified), for which the Kd is > 4 mM (inactive).

For the molecule `CN1C(=O)N(C)C2NC(=O)NC21` (stereo unspecified), the Kd is > 4 mM (inactive).

For the molecule `Oc1ccccc1C(=S)N1CCCCCC1`, the Kd is > 4 mM (inactive).
